# Experimental data as given in US20240270762A1, “PENICILLIN-BINDING PROTEIN INHIBITORS” (priority 2021, published 2024).
# How the values were obtained:
# A. baumannii PBP1a = target: T1, A. baumannii PBP1a (Acinetobacter baumannii, UniProt A0ABX6CK30); test: Bocillin-FL competition binding via gel filtration, A. baumannii PBP1a; conditions: competition binding assay using Bocillin-FL via gel filtration; read-out: A. baumannii PBP1a Potency
# T1 sequence (A0ABX6CK30 1-851): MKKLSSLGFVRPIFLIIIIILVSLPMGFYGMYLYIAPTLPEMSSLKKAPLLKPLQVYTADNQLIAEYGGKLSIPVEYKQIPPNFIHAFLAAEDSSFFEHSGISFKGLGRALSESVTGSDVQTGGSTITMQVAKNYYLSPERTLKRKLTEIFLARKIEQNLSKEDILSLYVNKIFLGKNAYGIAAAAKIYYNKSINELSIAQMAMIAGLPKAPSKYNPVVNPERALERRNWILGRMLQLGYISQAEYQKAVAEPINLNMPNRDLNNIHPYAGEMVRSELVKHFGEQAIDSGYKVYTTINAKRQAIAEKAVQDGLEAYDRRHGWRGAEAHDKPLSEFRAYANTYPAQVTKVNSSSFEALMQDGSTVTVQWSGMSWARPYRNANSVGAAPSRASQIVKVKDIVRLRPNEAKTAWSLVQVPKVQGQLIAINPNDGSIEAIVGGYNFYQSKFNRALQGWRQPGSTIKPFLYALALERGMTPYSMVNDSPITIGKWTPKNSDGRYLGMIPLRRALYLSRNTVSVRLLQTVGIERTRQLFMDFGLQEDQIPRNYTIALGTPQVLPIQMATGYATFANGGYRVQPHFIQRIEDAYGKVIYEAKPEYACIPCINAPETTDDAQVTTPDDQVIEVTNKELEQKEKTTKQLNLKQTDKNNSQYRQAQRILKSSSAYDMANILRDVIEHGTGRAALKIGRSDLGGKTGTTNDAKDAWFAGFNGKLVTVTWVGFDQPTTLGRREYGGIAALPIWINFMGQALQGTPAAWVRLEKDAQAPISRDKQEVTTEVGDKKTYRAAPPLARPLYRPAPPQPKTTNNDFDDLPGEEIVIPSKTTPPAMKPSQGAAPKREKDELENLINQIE
# Protocol: (§1) Affinity to A. baumannii PBP1a and PBP2 was assessed a competitive equilibrium binding assay using Bocillin-FL as the reporter molecule. Enzyme was pre-incubated with increasing concentrations of inhibitors, prior to addition of Bocillin and further incubation for 15 minutes. PBP bound with Bocillin-FL was separated by gel filtration using 96-well Zeba Spin size exclusion plates, and the fluorescence measured. The inhibitor affinity (reported as the EC50) was determined by plotting the fraction of PBP bound with Bocillin-FL at each inhibitor concentration against the inhibitor concentration, and fitting the data to the following equation:
# (§2) [formula] • where y is the fraction bound at a given inhibitor concentration, ymin is the fraction bound when the enzyme is completely inactivated, ymax is the maximum (uninhibited) fraction bound, n is the Hill coefficient, and x is the inhibitor concentration.
# A. baumannii PBP2 = A. baumannii PBP2 (Acinetobacter baumannii, UniProt D0C8Z9); test: Bocillin-FL competition binding via gel filtration, A. baumannii PBP2
# A. baumannii PBP2, sequence (D0C8Z9 whole entry): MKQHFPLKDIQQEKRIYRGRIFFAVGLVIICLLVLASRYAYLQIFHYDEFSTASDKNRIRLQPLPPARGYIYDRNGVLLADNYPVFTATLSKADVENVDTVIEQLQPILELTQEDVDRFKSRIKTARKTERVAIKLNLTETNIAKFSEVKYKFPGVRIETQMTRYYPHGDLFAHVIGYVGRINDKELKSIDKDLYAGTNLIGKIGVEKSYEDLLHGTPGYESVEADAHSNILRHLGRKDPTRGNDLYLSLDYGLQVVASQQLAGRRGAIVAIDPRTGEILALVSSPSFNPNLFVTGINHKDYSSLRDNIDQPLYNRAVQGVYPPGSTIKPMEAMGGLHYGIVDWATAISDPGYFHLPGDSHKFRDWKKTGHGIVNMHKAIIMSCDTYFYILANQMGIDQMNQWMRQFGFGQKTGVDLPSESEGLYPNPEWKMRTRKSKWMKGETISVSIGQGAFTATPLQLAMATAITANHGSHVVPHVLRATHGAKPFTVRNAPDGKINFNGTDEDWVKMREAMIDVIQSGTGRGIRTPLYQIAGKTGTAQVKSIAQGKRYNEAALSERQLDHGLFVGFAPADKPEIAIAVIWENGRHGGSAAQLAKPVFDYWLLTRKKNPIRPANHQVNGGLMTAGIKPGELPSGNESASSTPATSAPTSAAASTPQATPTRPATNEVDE
# Protocol: as §1, §2
# B. pseudomallei Bp82 = test: microbe, parasite or virus in culture; type: cell-based; conditions: Burkholderia pseudomallei, BP82, read-out: Minimum inhibitory concentration, B. pseudomallei Bp82
# [1] = test system: B. thailandensis ATCC 700388; test: microbe, parasite or virus in culture; type: cell-based; conditions: Burkholderia thailandensis, ATCC700388, read-out: Minimum inhibitory concentration (MIC), B. thailandensis ATCC 700388
# [2] = test system: B. humptydooensis ATCC BAA-2767; test: microbe, parasite or virus in culture; type: cell-based; conditions: Burkholderia humptydooensis, ATCCBAA2767, read-out: Minimum inhibitory concentration (MIC), B. humptydooensis ATCC BAA-2767
# [3] = target: T2, PBP3 from Escherichia coli (K-12) (Escherichia coli, UniProt P0AD68); test: Bocillin-FL fluorescence polarization competition binding, E. coli PBP3
# T2 construct: made in house
# T2 sequence (P0AD68 1-577): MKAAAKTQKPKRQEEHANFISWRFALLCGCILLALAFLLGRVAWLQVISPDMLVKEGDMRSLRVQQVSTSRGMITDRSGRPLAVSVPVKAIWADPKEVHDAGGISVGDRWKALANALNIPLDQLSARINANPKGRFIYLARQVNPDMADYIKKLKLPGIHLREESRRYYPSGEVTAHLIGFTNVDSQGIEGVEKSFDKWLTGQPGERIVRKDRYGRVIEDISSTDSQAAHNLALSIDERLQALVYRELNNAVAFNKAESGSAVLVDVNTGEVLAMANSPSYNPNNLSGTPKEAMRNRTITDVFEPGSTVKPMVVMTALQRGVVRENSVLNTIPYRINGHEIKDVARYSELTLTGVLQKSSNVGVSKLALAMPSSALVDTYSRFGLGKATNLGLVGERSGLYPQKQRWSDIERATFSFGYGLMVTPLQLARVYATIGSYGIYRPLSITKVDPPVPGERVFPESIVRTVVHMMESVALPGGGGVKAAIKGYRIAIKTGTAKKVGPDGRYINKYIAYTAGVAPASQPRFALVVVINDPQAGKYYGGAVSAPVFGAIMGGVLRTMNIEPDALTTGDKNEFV
# Source text: (§3) To determine the ability of boronic acid-based test PBP inhibitors to bind Penicillin Binding Proteins (PBPs), Bocillin-FL (fluorescently-labeled penicillin V; ThermoFisher Scientific) was used in a fluorescence polarization (FP) competition binding assay to assess inhibitor binding to PBP3 from Escherichia coli (K-12), PBP3 from Pseudomonas aeruginosa (PAO1), PBP1a and PBP3 from Acinetobacter baumannii (ATCC 19606), and PBP2 from Neisseria gonorrhoeae (FA19). PBPs were cloned and purified as described previously (E. coli PBP3, King, D. T, et al., ACS Infectious Diseases 2015, 1, 175-184; P. aeruginosa PBP3, Han et. al., PNAS 2010, 107 (51), 22002-22007; A. baumannii PBPs, Penwell et. al., Antimicrob. Agents Chemother. 2015, 59 (3), 1680-1689; N. gonorrhoeae PBP2, Singh et. al., J. Biol. Chem. 2019, 294 (38), 14020-14032). To establish assay conditions for competition binding, enzyme titration/saturation binding experiments were initially performed. Bocillin-FL was prepared at 0.2 μM in a buffer comprised of 50 mM Hepes (pH 8.0), 300 mM NaCl and 10% (v/v) glycerol for reactions with E. coli, P. aeruginosa and N. gonorrhoeae PBPs, and 25 mM Tris (pH 8.0), 200 mM NaCl, 10% (v/v) glycerol and 0.005% (v/v) Tween 20 for reactions with A. baumannii PBPs. Saturation binding was performed by mixing 40 μl of PBP solutions ranging in concentrations from 0-24 μM with 40 μl of the 0.2 μM Bocillin-FL solution, in individual wells of a black 384-well microplate. FP was measured immediately upon mixing (Excitation, 490 nm; Emission, 520 nm; g-factor, 0.96), using a Cytation3 (BioTek) microplate reader and measured continuously for up to 120 minutes. The FP response stabilized after 15 minutes for P. aeruginosa and A. baumannii PBP3, 30 minutes for E. coli PBP3 and A. baumannii PBP1a, and less than 1 minute for N. gonorrhoeae PBP2. […] The competition binding assay (80 μl final volume) was validated using beta-lactams and PBPs at final concentrations of: 1.5 μM for E. coli PBP3; 0.75 μM for P. aeruginosa PBP3; 1 μM for A. baumannii PBP1a; 0.2 μM for A. baumannii PBP3; and 0.25 μM for N. gonorrhoeae PBP2. Bocillin-FL was at 0.1 μM (0.05 μM with A. baumannii PBP1a) and beta-lactam concentrations ranged from 0-1,000 μM. E. coli PBP3 was incubated with increasing concentrations of ampicillin in a black 384-well microplate (Corning) for 30 minutes. P. aeruginosa PBP3 was incubated for 15 minutes with aztreonam, whereas A. baumannii PBP1a and PBP3 were incubated for 15 minutes with meropenem, and then Bocillin-FL was added followed immediately by the FP measurement for up to 60 minutes. […] The beta-lactam potency was reported as the concentration of beta-lactam required to reduce the amount of PBP bound-Bocillin-FL by 50% (EC50). […] The EC50 of aztreonam was determined to be <0.5 μM for P. aeruginosa PBP3. […] Binding assays for boronic acid PBP inhibitors were performed in an identical fashion for the respective PBPs.
# [4] = target: T3, PBP3 from Pseudomonas aeruginosa (PAO1) (Pseudomonas aeruginosa, UniProt G3XD46); test: Bocillin-FL fluorescence polarization competition binding, P. aeruginosa PBP3; conditions: Binding affinity to P. aeruginosa PBP3; fluorescence polarization competition binding assay using Bocillin-FL; read-out: P. aeruginosa PBP3 Potency
# T3 construct: made in house
# T3 sequence (G3XD46 whole entry): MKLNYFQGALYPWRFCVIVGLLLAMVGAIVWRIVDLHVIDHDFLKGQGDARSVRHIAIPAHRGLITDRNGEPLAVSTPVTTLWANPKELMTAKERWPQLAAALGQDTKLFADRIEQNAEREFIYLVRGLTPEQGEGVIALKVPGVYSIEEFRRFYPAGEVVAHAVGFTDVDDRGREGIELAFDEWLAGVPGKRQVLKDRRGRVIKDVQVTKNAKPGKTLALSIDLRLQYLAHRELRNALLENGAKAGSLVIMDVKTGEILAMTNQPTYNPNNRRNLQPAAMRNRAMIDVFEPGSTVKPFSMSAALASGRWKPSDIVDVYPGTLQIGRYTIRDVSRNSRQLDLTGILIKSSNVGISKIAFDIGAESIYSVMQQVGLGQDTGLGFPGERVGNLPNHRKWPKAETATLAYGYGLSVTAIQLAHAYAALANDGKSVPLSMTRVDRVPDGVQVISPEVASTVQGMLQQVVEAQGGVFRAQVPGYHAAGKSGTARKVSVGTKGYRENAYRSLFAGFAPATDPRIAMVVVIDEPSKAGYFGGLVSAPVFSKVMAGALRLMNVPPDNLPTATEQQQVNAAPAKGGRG
# Source text: as §3
# E. coli ATCC 25922 = test: microbe, parasite or virus in culture; type: cell-based; conditions: Escherichia coli, ATCC25922, read-out: MIC E. coli 25922
# E. coli AG100 = test: microbe, parasite or virus in culture; type: cell-based; conditions: Escherichia coli, AG100, read-out: MIC E. coli AG100
# E. coli 901C = test: microbe, parasite or virus in culture; type: cell-based; conditions: Escherichia coli, read-out: MIC E. coli 901C
# E. coli D22 = test: microbe, parasite or virus in culture; type: cell-based; conditions: Escherichia coli, D22, read-out: MIC E. coli D22
# E. coli AG100A = test: Broth microdilution MIC in CAMHB; type: cell-based; conditions: Escherichia coli, read-out: MIC E. coli AG100A
# K. pneumoniae 848844 = test: microbe, parasite or virus in culture; type: cell-based; conditions: Klebsiella pneumoniae, 848844, read-out: MIC K. pneumoniae 848844
# K. pneumoniae UMM = test: microbe, parasite or virus in culture; type: cell-based; conditions: Klebsiella pneumoniae, read-out: MIC K. pneumoniae UMM
# K. pneumoniae SI-117 = test: microbe, parasite or virus in culture; type: cell-based; conditions: Klebsiella pneumoniae, SI117, read-out: MIC K. pneumoniae SI-117
# P. aeruginosa ATCC 27853 = test: microbe, parasite or virus in culture; type: cell-based; conditions: Pseudomonas aeruginosa, ATCC27853, read-out: MIC P. aeruginosa ATCC 27853
# A. baumannii ATCC 19606 = test: microbe, parasite or virus in culture; type: cell-based; conditions: Acinetobacter baumannii, ATCC19606, read-out: MIC, A. baumannii ATCC 19606
# P. aeruginosa ATCC 35151 = test: microbe, parasite or virus in culture; type: cell-based; conditions: Pseudomonas aeruginosa, ATCC35151, read-out: MIC P. aeruginosa ATCC 35151
# [5] = test system: P. aeruginosa (ΔmexAB-oprM); test: Broth microdilution MIC in CAMHB; type: cell-based; conditions: Pseudomonas aeruginosa; read-out: MIC P. aeruginosa ΔmexAB-oprM
# [6] = test system: N. gonorrhoeae ATCC 49226; test: Liquid broth MIC in Fastidious broth; conditions: Neisseria gonorrhoeae, ATCC49226, read-out: Minimum Inhibitory Concentration, ATCC 49226
# N. gonorrhoeae FA1090 = test: Liquid broth MIC in Fastidious broth; conditions: Neisseria gonorrhoeae, FA1090, read-out: Minimum Inhibitory Concentration, FA 1090
# N. gonorrhoeae WHO Z = test: Liquid broth MIC in Fastidious broth; conditions: Neisseria gonorrhoeae, read-out: Minimum Inhibitory Concentration, WHO Z
Structure (SMILES),EC50 [3] [µM],IC50 [4] [µM],MIC (E. coli ATCC 25922) [µg/mL],MIC (E. coli AG100) [µg/mL],MIC (E. coli 901C) [µg/mL],MIC (E. coli D22) [µg/mL],MIC (E. coli AG100A) [µg/mL],MIC (K. pneumoniae 848844) [µg/mL],MIC (K. pneumoniae UMM) [µg/mL],MIC (K. pneumoniae SI-117) [µg/mL],MIC (P. aeruginosa ATCC 27853) [µg/mL],MIC (A. baumannii ATCC 19606) [µg/mL],MIC (P. aeruginosa ATCC 35151) [µg/mL],MIC [5] [µg/mL],other results
"O=C(O)c1c(F)ccc2c1OB(O)[C@@H](NC(=O)C(NC(=O)N1CCN(C3CCN(Cc4ccc(O)cc4)CC3)C1=O)c1cc(F)c(O)c(O)c1Cl)C2 (single isomer, unassigned) [Example 609]",–,–,–,–,–,–,–,–,–,–,–,–,–,–,EC50 (A. baumannii PBP1a): < 10 µM; EC50 (A. baumannii PBP2): 10 to 50 µM; MIC (B. pseudomallei Bp82): < 1 µg/mL; MIC [1]: < 1 µg/mL; MIC [2]: < 1 µg/mL
"O=C(NC(C(=O)N[C@H]1Cc2cccc(C(=O)O)c2OB1O)c1ccc(P(=O)(O)O)cc1)c1ccc2ccnn2c1 (stereo partly drawn) [Example 498, (3R)-2-hydroxy-3-(2-(4-phosphonophenyl)-2-(pyrazolo[1,5-a]pyridine-6-carboxamido)acetamido)-3,4-dihydro-2H-benzo[e][1,2]oxaborinine-8-carboxylic acid]",50 to 250,10 to 50,> 128,> 128,32 to 64,> 128,> 128,> 128,> 128,> 128,> 128,> 128,8 to 16,> 128,MIC [6]: > 64 µg/mL; MIC (N. gonorrhoeae FA1090): 4 to 8 µg/mL; MIC (N. gonorrhoeae WHO Z): > 64 µg/mL
"O=C(N[C@H](C(=O)N[C@H]1Cc2cccc(C(=O)O)c2OB1O)c1ccc(P(=O)(O)O)cc1)c1cnc2ccnn2c1 (single isomer, unassigned) [Example 186]",> 250,10 to 50,> 128,> 128,8 to 16,> 128,> 128,> 128,> 128,> 128,> 128,> 128,2 to 4,> 128,–
